The target of experiment [1] is T1, GIPR (CHO-K1-hGIPR cells) (Homo sapiens, UniProt P48546).
T1 construct: host or cells: CHO-K1
T1 sequence (P48546 22-466): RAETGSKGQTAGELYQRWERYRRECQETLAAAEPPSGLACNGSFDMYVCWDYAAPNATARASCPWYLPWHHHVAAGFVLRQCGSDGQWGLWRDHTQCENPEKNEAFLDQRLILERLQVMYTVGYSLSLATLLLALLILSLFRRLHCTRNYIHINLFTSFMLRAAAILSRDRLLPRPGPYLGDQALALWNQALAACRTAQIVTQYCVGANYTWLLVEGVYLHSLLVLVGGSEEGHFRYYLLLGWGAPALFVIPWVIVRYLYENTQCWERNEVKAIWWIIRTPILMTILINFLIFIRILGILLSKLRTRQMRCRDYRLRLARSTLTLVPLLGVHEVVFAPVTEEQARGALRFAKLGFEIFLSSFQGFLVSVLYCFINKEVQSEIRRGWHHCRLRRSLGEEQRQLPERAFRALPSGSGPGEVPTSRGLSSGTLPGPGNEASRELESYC
The experiment in a line: FACS binding assay. The conditions noted are these: competition with 20 nM GIP-057, 4° C., 1 hour, read-out: pIC50 Category (converted). The procedure, abridged: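 Read-out: flow cytometric median fluorescence intensity, APC/Cy5 channel, plotted vs peptide conc.; 4PL fit → EC50/pEC50 or IC50/pIC50. Cells: CHO-K1-hGIPR, Accutase-detached, 500.000/mL in PBS + 1% FCS. Detection: APC-streptavidin 1 μg/mL, 30 min, on ice.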

The target of experiment [2] is T2, human GIP receptor (bioGIPR) (Homo sapiens, UniProt P48546).
T2 construct: Biotinylate extracellular of the human GIP receptor (bioGIPR, Proteros biostructures GmbH, lot #02/2b); purchased Proteros biostructures GmbH lot #02/2b
T2 sequence (P48546 22-138 limits assumed): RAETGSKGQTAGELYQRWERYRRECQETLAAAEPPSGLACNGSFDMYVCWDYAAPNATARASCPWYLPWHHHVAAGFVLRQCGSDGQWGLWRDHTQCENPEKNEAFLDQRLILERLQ
The experiment in a line: Surface plasmon resonance (SPR) based binding assay. The conditions noted are these: Single Cycle Kinetic mode, 25° C.; for t1/2 Category: SPR dissociation half-life; for Kd: SPR, 1:1 Langmuir binding model, read-out: pKD Category (converted). The procedure, abridged: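 Binding was measured at 25 °C by single-cycle kinetics against a reference flow cell, with blank-run and drift correction, after capturing biotinylated GIPR extracellular domain to ~3500 RU. Running buffer: HBST, 0.1% DMSO. A 1:1 Langmuir model gave kinetic rates, KD, t1/2 and pKD.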

*1 amine or outer side, *2 acyl side, *3 side chain or, on linkers, in order; H or OH if unused. Where a SMILES comes first, the peptide text is derived from it. Bridges are numbered along the chain shown (N, C = ends). [ ]: non-standard residue; d: D form. The star is where a group is joined. X11 = O=C(CN1CCN2CCN3CCN(CC1)CC(=O)[O][In]([O]C(=O)C2)[O]C(=O)C3)NCCCOCCOCCOCCCN*; DOTA(In) = O=C1CN2CCN3CCN(CC(=O)*)CCN(CC2)CC(=O)[O][In]([O]1)[O]C(=O)C3; NH(1-deoxy-D-glucityl) = OC[C@@H](O)[C@@H](O)[C@H](O)[C@@H](O)CN*; Pro(trans-4-NH2) = O=C([C@@H]1C[C@@H](N[*:3])CN1[*:1])[*:2]; DOTA = O=C(O)CN1CCN(CC(=O)O)CCN(CC(=O)*)CCN(CC(=O)O)CC1; Trp(5-Cl) = N[C@@H](Cc1c[nH]c2ccc(Cl)cc12)C(=O)O; Pyridine(2,6-diCH2) = c1cc(C[*:1])nc(C[*:2])c1; Glutaryl = O=C(CCCC(=O)[*:2])[*:1]; X6 = c1cc(CSCCN[*:2])nc(C[*:1])c1; X7 = c1cc(CSCCN[*:2])cc(C[*:1])c1; Hyp = O=C(O)[C@@H]1C[C@@H](O)CN1; X1 = O=C(CN1CCC(N[*:1])CC1)[*:2]; Suc = O=C(CCC(=O)[*:2])[*:1]; Api = NC1(C(=O)O)CCNCC1; Thp = NC1(C(=O)O)CCOCC1; Aib = CC(C)(N)C(=O)O

Consider `CC[C@H](C)[C@@H]1NC(=O)[C@H](CC(C)C)NC(=O)C2(CCOCC2)NC(=O)[C@@H](NC(=O)[C@@H](CC(C)C)NC(=O)[C@H](CCC(=O)O)NC(=O)[C@@H]2C[C@@H](NC(=O)CN3CCN(CC(=O)O)CCN(CC(=O)O)CCN(CC(=O)O)CC3)CN2C(=O)[C@H](Cc2c[nH]c3ccc(Cl)cc23)NC(=O)[C@H](Cc2c[nH]c3ccccc23)NC(=O)[C@H](CC(=O)O)NC(C)=O)CSCc2cccc(n2)CSC[C@@H](C(N)=O)NC1=O` [GIP-121, Ac-Asp-Trp-5Clw-Tap(DOTA)-Glu-leu-[Cys(2Lut)-Thp-Leu-Ile-Cys]-NH2] (Ac-DW[Trp(5-Cl)][Pro(trans-4-NH2)](DOTA)E[dL]C[Thp]LIC-NH2; linker 7-11 via Pyridine(2,6-diCH2)), for which, in experiment [1], the IC50 was less than 10 nM. Moreover, in experiment [2], the “t1/2 Category” value is listed as “A (t1/2 values>15 min)” and the Kd is less than 1 nM.

Regarding `CC[C@H](C)[C@@H]1NC(=O)[C@H](CC(C)C)NC(=O)C2(CCN(C(=O)CN3CCN4CCN5CCN(CC3)CC(=O)[O][In]([O]C(=O)C5)[O]C(=O)C4)CC2)NC(=O)[C@@H](NC(=O)[C@@H](CC(C)C)NC(=O)[C@H](CCC(=O)O)NC(=O)[C@@H]2C[C@@H](O)CN2C(=O)[C@H](Cc2c[nH]c3ccc(Cl)cc23)NC(=O)[C@H](Cc2c[nH]c3ccccc23)NC(=O)[C@H](CC(=O)O)NC(=O)CCCC(=O)NC[C@H](O)[C@@H](O)[C@H](O)[C@H](O)CO)CSCc2cccc(n2)CSCCNC1=O` [GIP-146, AGLU-Glutar-Asp-Trp-5Clw-Hyp-Glu-leu-[Cys(2Lut)-Apc(InDOTA)-Leu-Ile-AET]] ({NH(1-deoxy-D-glucityl)-Glutaryl}-DW[Trp(5-Cl)][Hyp]E[dL]C[Api](DOTA(In))LI; linker 7-C via X6), the IC50 in experiment [1] was less than 10 nM. Also, the Kd in experiment [2] is less than 1 nM.

Regarding `CC[C@H](C)[C@@H]1NC(=O)[C@H](CC(C)C)NC(=O)C(C)(C)NC(=O)[C@@H](NC(=O)[C@@H](CC(C)C)NC(=O)[C@H](CCC(=O)O)NC(=O)[C@@H]2C[C@@H](O)CN2C(=O)[C@H](Cc2c[nH]c3ccc(Cl)cc23)NC(=O)[C@H](Cc2c[nH]c3ccccc23)NC(=O)[C@H](CC(=O)O)NC(=O)CCC(=O)NCCCOCCOCCOCCCNC(=O)CN2CCN3CCN4CCN(CC2)CC(=O)[O][In]([O]C(=O)C3)[O]C(=O)C4)CSCc2cccc(c2)CSCCNC1=O` [GIP-151, InDOTA-Ttds-Asp-Trp-5Clw-Hyp-Glu-leu-[Cys(3MeBn)-Aib-Leu-Ile-AET]] ({X11-Suc}-DW[Trp(5-Cl)][Hyp]E[dL]C[Aib]LI; linker 7-C via X7), the IC50 in experiment [1] is less than 10 nM. Besides, in experiment [2], the “t1/2 Category” value is reported as “A (t1/2 values>15 min)” and the Kd is less than 1 nM.

For `CC[C@H](C)[C@@H]1NC(=O)[C@H](CC(C)C)NC(=O)C(C)(C)NC(=O)[C@@H](NC(=O)[C@@H](CC(C)C)NC(=O)[C@H](CCC(=O)O)NC(=O)[C@@H]2CCCN2C(=O)[C@H](Cc2c[nH]c3ccc(Cl)cc23)NC(=O)[C@H](Cc2c[nH]c3ccccc23)NC(=O)[C@H](CC(=O)O)NC(=O)CN2CCC(NC(=O)CN3CCN4CCN5CCN(CC3)CC(=O)[O][In]([O]C(=O)C4)[O]C(=O)C5)CC2)CSCc2cccc(c2)CSCCNC1=O` [GIP-153, InDOTA-APAc-Asp-Trp-5Clw-Pro-Glu-leu-[Cys(3MeBn)-Aib-Leu-Ile-AET]] ({DOTA(In)}-[X1]DW[Trp(5-Cl)]PE[dL]C[Aib]LI; linker 8-C via X7), the IC50 in experiment [1] is less than 10 nM. The Kd in experiment [2] is less than 1 nM.

Consider `CC[C@H](C)[C@@H]1NC(=O)[C@H](CC(C)C)NC(=O)C2(CCOCC2)NC(=O)[C@@H](NC(=O)[C@@H](CC(C)C)NC(=O)[C@H](CCC(=O)O)NC(=O)[C@@H]2C[C@@H](O)CN2C(=O)[C@H](Cc2c[nH]c3ccc(Cl)cc23)NC(=O)[C@H](Cc2c[nH]c3ccccc23)NC(=O)[C@H](CC(=O)O)NC(=O)CN2CCC(NC(=O)CN3CCN4CCN5CCN(CC3)CC(=O)[O][In]([O]C(=O)C4)[O]C(=O)C5)CC2)CSCc2cccc(n2)CSCCNC1=O` [GIP-155, InDOTA-APAc-Asp-Trp-5Clw-Hyp-Glu-leu-[Cys(2Lut)-Thp-Leu-Ile-AET]] ({DOTA(In)}-[X1]DW[Trp(5-Cl)][Hyp]E[dL]C[Thp]LI; linker 8-C via X6), for which the IC50 in experiment [1] was less than 10 nM. Also, the Kd in experiment [2] is less than 1 nM.

These data come from patent US20250296971A1, “GASTRIC INHIBITORY PEPTIDE RECEPTOR LIGANDS” (priority 2021, published 2025).
